Measurements from US8895637B2, “Environment-friendly antifoulants for the prevention of biofouling” (University of North Texas Health Science Center at Fort …, priority 2007, dated 2014).
Read-outs that look alike come from different tables or passages of the source.

Tests used:
[1] = test system: Daphnia magna (water flea); experiment: non-target organism screening, Daphnia cumulative mortality; assay type: in vivo; conditions: for lethal effect / toxicity towards non-target (Daphnia) organism: at a dose that totally prevents fouling by mussels; for toxicity to other non-target organisms (water fleas, Daphnia magna): summary statement
Method: Those compounds that were determined to be highly efficacious zebra mussel antifoulants with little or no toxicity were additionally assessed for toxicity in another non-target aquatic species. The freshwater cladoceran crustacean Daphnia magna (water flea) is commonly utilized for aquatic toxicity testing (Suedel et al., 1997), with 10,583 tests of toxic end points being reported for this species on the USEPA ECOTOX web site. Three replicates of 20 adult specimens of D. magna were exposed to each compound employing a dose range that was the same or greater than that used in zebra mussel antifouling studies. The conditions for toxicity testing of water fleas were the same as those used for testing zebra mussel antifouling and toxicity (i.e., polypropylene containers at 15° C.), except that test medium volume was 40 ml and exposure was increased to three days. Dead individuals were removed every 24 h and the total number of surviving individuals was recorded at the end of 1, 2, and 3 days. Although the level of Daphnia mortality was too low in most cases, when it was high enough to be reliably estimated then the Daphnia lethal dose values (i.e., LD50) were estimated using the same methods employed in the mussel byssal attachment studies. Uniformity of test organisms was maintained by establishing a laboratory D. magna culture with specimens initially purchased from a biological supply company.

[2] = test system: zebra mussels (Dreissena polymorpha)
zebra mussel = conditions: controlled laboratory setting; cited from earlier work
[3] = mixed with paint applied to a surface or applied as a dust; cited from earlier work
[4] = target: vanilloid receptor 1 (VR1) receptor (Homo sapiens, UniProt Q8NER1); conditions: cited from earlier work
vanilloid receptor 1 (VR1) receptor, sequence (Q8NER1 whole entry, species assumed): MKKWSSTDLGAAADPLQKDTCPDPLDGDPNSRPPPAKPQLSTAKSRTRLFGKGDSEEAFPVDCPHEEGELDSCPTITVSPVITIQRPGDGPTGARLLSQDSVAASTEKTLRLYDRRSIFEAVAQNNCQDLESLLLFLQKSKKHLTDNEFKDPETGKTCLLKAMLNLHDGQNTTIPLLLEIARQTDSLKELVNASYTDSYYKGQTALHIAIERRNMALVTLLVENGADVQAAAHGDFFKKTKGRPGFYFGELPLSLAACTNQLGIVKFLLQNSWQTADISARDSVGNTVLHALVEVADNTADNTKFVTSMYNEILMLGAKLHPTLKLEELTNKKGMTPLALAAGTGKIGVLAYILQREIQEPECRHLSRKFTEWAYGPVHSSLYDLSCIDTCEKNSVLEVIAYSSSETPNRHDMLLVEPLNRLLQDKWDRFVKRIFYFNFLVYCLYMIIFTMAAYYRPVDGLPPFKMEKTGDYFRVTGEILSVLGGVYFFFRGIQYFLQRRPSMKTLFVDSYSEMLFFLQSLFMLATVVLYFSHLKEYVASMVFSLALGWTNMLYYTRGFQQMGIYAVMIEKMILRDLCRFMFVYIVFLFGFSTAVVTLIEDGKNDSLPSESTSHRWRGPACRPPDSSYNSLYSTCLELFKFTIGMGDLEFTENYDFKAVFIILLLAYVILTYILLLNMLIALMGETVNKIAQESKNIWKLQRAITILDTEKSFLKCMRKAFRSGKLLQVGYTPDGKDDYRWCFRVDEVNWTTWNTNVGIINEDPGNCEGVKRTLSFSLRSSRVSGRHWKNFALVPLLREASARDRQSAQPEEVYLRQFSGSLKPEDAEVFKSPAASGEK

[5] = single high concentration (e.g., 30 μM), 48 h, FIG. 4 and FIG. 6
[6] = single high concentration (e.g., 30 μM), second 48 h post-exposure / both periods

Row | Structure (SMILES) | lethal effect / toxicity towards non-target (Daphnia) organism [1] | residual effect to the target organism ([2]; in vivo) | zebra mussel antifouling efficacy ([2]; in vivo) | antifouling efficacy (fraction of unattached mussels during the first 48 h) ([2]; in vivo) | target organism residual effects ("toxicity") or lethality ([2]; in vivo) | further results
1 | COc1cc(CNC(=O)CCCC/C=C/C(C)C)ccc1O (racemic) [capsaicin, reference compound] | no toxicity | little residual effect | efficacious | – | – | toxicity to other non-target organisms (water fleas, Daphnia magna) [1]: reduced toxicity; toxicity to the target organism (zebra mussels) ([2]; in vivo): reduced toxicity; zebra mussel antifoulant effect (zebra mussel): effective; antifouling effectiveness compared with copper [3]: not as effective as copper
2 | CCCCCCC(C)(C)c1ccc([C@@H]2C[C@H](O)CC[C@@H]2CCCO)c(O)c1 [CP55,940] | – | – | – | – | – | antifouling efficacy (fraction of unattached mussels during the first 48 h) [2, 5]: efficacious; target organism residual effects ("toxicity") or lethality [2, 6]: minimal
3 | CC1=CC[C@H]2[C@@H](C1)c1c(O)cc(CC#CCCCNS(C)(=O)=O)cc1OC2(C)C [O-2050] | no lethal effect | – | efficacious | efficacious | minimal | residual effect at a dose that totally prevents biofouling ([2]; 6 μM): no residual effect; antifouling potency ([2]; in vivo): higher potency; dose that totally prevents fouling by mussels ([2]; in vivo): 6 µM
4 | COc1ccc(C(=O)c2c(C)n(CCN3CCOCC3)c3cc(I)ccc23)cc1 [AM630] | no significant lethality | some residual effect | efficacious | efficacious | minimal | dose that totally prevents fouling by mussels ([2]; in vivo): 4 µM
5 | CCCCCCCCCC(=O)NC(CC)CO (centres unmarked) [N-(1-(hydroxymethyl)propyl)decanamide] | – | – | – | efficacious | minimal | –
6 | CCCCCCCCCCCC(=O)NCC(=O)NN=Cc1ccc(OC)c(OC)c1 [N-(2-(2-(3,4-dimethoxybenzylidene)hydrazine)-2-oxoethyl)dodecanamide] | – | – | – | efficacious | minimal | –
7 | CCCCCCCCC(=O)NCc1ccc(O)c(OC)c1 [pseudocapsaicin, N-vanillylnonanamide] | not lethal | little residual effect | efficacious | – | – | Daphnia toxicity over controls ([1]; 72 h exposure, 20 and 30 μM): no measurable toxicity over controls; lethal effect / toxicity towards non-target (Daphnia) organism ([1]; listed as N-vanillylnonanamide): no significant toxicity; Daphnia mortality ([1]; highest test dose (60 μM), 72 h time point): Statistically significant Daphnia mortality; toxicity to other non-target organisms (water fleas, Daphnia magna) [1]: reduced toxicity; antifouling ([2]; 20 μM): 100%; antifouling ([2]; 30 μM): 100%; toxicity to the target organism (zebra mussels) ([2]; in vivo): reduced toxicity
8 | CCCCC/C=C\C/C=C\C/C=C\C/C=C\CCCC(=O)NCCO [anandamide] | no lethal effect | no residual effect | efficacious | efficacious | minimal | toxicity to other non-target organisms (water fleas, Daphnia magna) [1]: reduced toxicity; dose that totally prevents fouling by mussels ([2]; in vivo): 15 µM; toxicity to the target organism (zebra mussels) ([2]; in vivo): reduced toxicity
9 | CCCCC/C=C\C/C=C\CCCCCCCC(=O)NCCO [Linoleyl ethanolamide] | – | – | – | efficacious | minimal | –
10 | COc1cc(CNC(=O)CCCC/C=C\C(C)C)ccc1O [compound 29] | – | – | – | efficacious | minimal | attachment of zebra mussels to aquatic striatum ([2]; in vivo): prevents the attachment; toxicity to the target organism ([2]; in vivo): non-toxic; action on the vanilloid receptor 1 (VR1) receptor [4]: does not act on
11 | CCCCC/C=C\C/C=C\C/C=C\C/C=C\CCCCOC(CO)CO [noladin ether] | – | – | – | – | – | antifouling efficacy (fraction of unattached mussels during the first 48 h) [2, 5]: efficacious; target organism residual effects ("toxicity") or lethality [2, 6]: minimal
12 | COc1cc(CNC(=O)CCCC/C=C/C(C)C)ccc1O [compound 28, 8-methyl-N-vanillyl-trans-6-nonenamide] | – | – | – | efficacious | minimal | toxicity of the stereoisomer towards the non-target (Daphnia) organism ([1]; inferred from the result for racemic capsaicin): neither stereoisomer (E or Z) is toxic
